Read-outs that look alike come from different tables or passages of the source.
Assays:
Assay type in all cases: cell-based
[1] = system: H358 cells; test: H358 proliferation assay (CellTiter-Glo); conditions: 120 h incubation, read-out: IC50 (nM), inhibitory activity against H358 cell proliferation
Protocol: The inhibitory activity of the compounds of the present disclosure against H358 cell proliferation was measured. Below is a brief description of the experimental method: H358 cells (ATCC, CRL-5807) were cultured in RPMI1640 medium (Hyclone, SH30809.01) containing 10% fetal bovine serum (Corning, 35-076-CV) (i.e., complete medium). On the first day of the experiment, H358 cells were seeded into a 96-well plate at a density of 1200 cells/well using complete medium, with 100 μL of cell suspension per well, and the plate was incubated overnight in a 37° C., 5% CO2 cell incubator. On the second day, the test compounds, prepared in complete medium and serially diluted, were added at 10 μL/well. The final concentrations of the compounds were 9 concentration points obtained by a 5-fold serial dilution from 10 μM. A blank control containing 0.5% DMSO was set up. The plate was incubated for 120 h in a 37° C., 5% CO2 cell incubator. On the seventh day, the 96-well cell plate was removed from the incubator, and CellTiter-Glo® Luminescent Cell Viability Assay (Promega, G7573) was added at 50 μL/well. After 10 min of room temperature incubation, luminescence signals were measured using a multifunctional microplate reader (PerkinElmer, EnVision® 2105). The IC50 values for the inhibitory activity of the compounds were calculated using Graphpad Prism software.

[2] = system: MIA PaCa-2 cells; test: MIA PaCa-2 cell proliferation assay (CellTiter-Glo); conditions: 72 h incubation, read-out: IC50 (nM), inhibitory activity against MIA PaCa-2 cell proliferation
Protocol: The inhibitory activity of the compounds of the present disclosure against MIA PaCa-2 cell proliferation was measured. Below is a brief description of the experimental method:
MIA PaCa-2 cells (ATCC, CRL-1420) were cultured in DMEM/HIGH GLUCOSE medium (GE, SH30243.01) containing 10% fetal bovine serum (Corning, 35-076-CV) and 2.5% horse serum (Beyotime Biological Tech., C0262) (i.e., complete medium). On the first day of the experiment, MIA PaCa-2 cells were seeded into a 96-well plate at a density of 500 cells/well using complete medium, with 90 µL of cell suspension per well, and the plate was incubated overnight in a 37° C., 5% CO2 cell incubator. On the second day, the test compounds, prepared in complete medium and serially diluted, were added at 10 μL/well. The final concentrations of the compounds were 9 concentration points obtained by a 5-fold serial dilution from 10 μM. A blank control containing 0.5% DMSO was set up. The plate was incubated for 72 h in a 37° C., 5% CO2 cell incubator. On the fifth day, the 96-well cell plate was removed from the incubator, and CellTiter-Glo® Luminescent Cell Viability Assay (Promega, G7573) was added at 50 μL/well. After 10 min of room temperature incubation, luminescence signals were measured using a multifunctional microplate reader (PerkinElmer, EnVision2015). The IC50 values for the inhibitory activity of the compounds were calculated using Graphpad Prism software.

[3] = system: ERK phosphorylation in H358 cells; test: H358 cell ERK phosphorylation inhibition assay (HTRF pERK/total ERK); conditions: 3 h incubation, ratio of pERK/total ERK, read-out: IC50 (nM), inhibitory effects on ERK phosphorylation in H358 cells
Protocol: The inhibitory effects of the compounds of the present disclosure on ERK phosphorylation in H358 cells were measured. Below is a brief description of the experimental method: H358 cells (ATCC, CRL-5807) were cultured in RPMI1640 medium (Hyclone, SH30809.01) containing 10% fetal bovine serum (Corning, 35-076-CV) (i.e., complete medium). On the first day of the experiment, H358 cells were seeded into a 96-well plate at a density of 25,000 cells/well using complete medium, with 190 μL of cell suspension per well, and the plate was incubated overnight in a 37° C., 5% CO2 cell incubator. On the second day, the test compounds, prepared in complete medium and serially diluted, were added at 10 μL/well. The final concentrations of the compounds were 9 concentration points obtained by a 6-fold serial dilution from 10 μM. A blank control containing 0.5% DMSO was set up. The plate was incubated for 3 h in a 37° C., 5% CO2 cell incubator. After 3 h, the 96-well cell culture plate was removed from the incubator, and the culture medium was pipetted off. PBS (Shanghai BasalMedia Technologies Co., Ltd., B320) was added at 200 μL/well for a single wash. PBS was pipetted off, and lysis buffer (Cisbio, 64KL1FDF) containing a blocking agent (Cisbio, 64KB1AAC) was added at 50 μL/well. The plate was incubated on a shaker for 30 min at room temperature to lyse the cells. After lysis, the lysates were well mixed by pipetting, and 16 μL of lysate was transferred from each well to two HTRF 96-well assay plates (Cisbio, 66PL96100). Subsequently, 4 μL of a premixed phospho-ERK1/2 antibody solution (Cisbio, 64AERPEG) or 4 μL of a premixed total-ERK1/2 antibody solution (Cisbio, 64NRKPEG) was added to each of the plates. The plates were sealed with a plate sealer film, centrifuged for 1 min in a microplate centrifuge, and incubated overnight at room temperature in the dark. On the third day, fluorescence values at an excitation wavelength of 337 nm and emission wavelengths of 665 nm and 620 nm were measured using a PHERAstar multifunctional microplate reader (BMG Labtech, PHERAstar FS). The IC50 values for the inhibitory activity of the compounds were calculated using Graphpad Prism software, based on the compound concentration and the ratio of pERK/total ERK.

| Structure (SMILES) | IC50 ([1]; Homo sapiens, NCI-H358, 120 h) [nM] | IC50 ([2]; Homo sapiens, MIA PaCa-2, 72 h) [nM] | IC50 ([3]; Homo sapiens, NCI-H358, 3 h) [nM] | IC50 [1] [nM] | IC50 [2] [nM] | IC50 [3] [nM] |
| --- | --- | --- | --- | --- | --- | --- |
| C=CC(=O)N1CCN2C(=O)c3cc(F)c(-c4ccc(F)c5sc(N)c(C#N)c45)c4c(Cl)cn(c34)CC[C@H]2C1 (atropisomer, axis not shown) [Example 19-P2, (S)-4-((S)-10-Acryloyl-4-chloro-2-fluoro-14-oxo-8,8a,9,10,11,12-hexahydro-7H,14H-pyrazino[1′,2′:5,6][1,5]diazocino[3,2,1-hi]indol-3-yl)-2-amino-7-fluorobenzo[b]thiophene-3-carbonitrile] | 5.65 | 4.9 | 0.97 | – | – | – |
| C=C(F)C(=O)N1CCN2C(=O)c3cc(F)c(-c4ccc(F)c5sc(N)c(C#N)c45)c4c(Cl)nn(c34)CC[C@H]2C1 (atropisomer, axis not shown) [Example 17-P2, (S)-2-Amino-4-((S)-4-chloro-2-fluoro-10-(2-fluoroacryloyl)-14-oxo-8,8a,9,10,11,12-hexahydro-7H,14H-pyrazino[1′,2′:5,6][1,5]diazocino[3,2,1-hi]indazol-3-yl)-7-fluorobenzo[b]thiophene-3-carbonitrile] | 1.87 | 1.88 | 2 | – | – | – |
| C=CC(=O)N1CCN2C(=O)c3cc(F)c(-c4ccc(F)c5sc(N)c(C#N)c45)c4cnn(c34)CC[C@@H]2C1 (atropisomer, axis not shown) [Example 12-P2, (S)-4-((R)-10-Acryloyl-2-fluoro-14-oxo-8,8a,9,10,11,12-hexahydro-7H,14H-pyrazino[1′,2′:5,6][1,5]diazocino[3,2,1-hi]indazol-3-yl)-2-amino-7-fluorobenzo[b]thiophene-3-carbonitrile] | – | 35.3 | 11.3 | – | – | – |
| C=CC(=O)N1CCN2C(=O)c3cc(F)c(-c4ccc(F)c5sc(N)nc45)c4ccn(c34)CC[C@H]2C1 [Example 3, (8aS)-10-Acryloyl-3-(-2-amino-7-fluorobenzo[d]thiazol-4-yl)-2-fluoro-8,8a,9,10,11,12-hexahydro-7H,14H-pyrazino[1′,2′:5,6][1,5]diazocino[3,2,1-hi]indol-14-one] | – | – | 23.7 | – | – | – |
| C=C(F)C(=O)N1CCN2C(=O)c3cc(F)c(-c4ccc(F)c5sc(N)c(C#N)c45)c4ccn(c34)CC[C@H]2C1 [Example 5, 2-Amino-7-fluoro-4-((S)-2-fluoro-10-(2-fluoroacryloyl)-14-oxo-8,8a,9,10,11,12-hexahydro-7H,14H-pyrazino[1′,2′:5,6][1,5]diazocino[3,2,1-hi]indol-3-yl)benzo[b]thiophene-3-carbonitrile] | – | – | 36.2 | – | – | – |
| C=C(F)C(=O)N1CCN2C(=O)c3cc(F)c(-c4ccc(F)c5sc(N)c(C#N)c45)c4cnn(c34)CC[C@H]2C1 (atropisomer, axis not shown) [Example 6-P1, (R)-2-Amino-7-fluoro-4-((S)-2-fluoro-10-(2-fluoroacryloyl)-14-oxo-8,8a,9,10,11,12-hexahydro-7H,14H-pyrazino[1′,2′:5,6][1,5]diazocino[3,2,1-hi]indazol-3-yl)benzo[b]thiophene-3-carbonitrile] | – | – | – | 9.75 | 13.9 | 1.45 |
| C=CC(=O)N1CCN2C(=O)c3c(F)c(F)c(-c4ccc(F)c5sc(N)c(C#N)c45)c4cnn(c34)CC[C@H]2C1 (atropisomer, axis not shown) [Example 11-P2, (S)-4-((S)-10-Acryloyl-1,2-difluoro-14-oxo-8,8a,9,10,11,12-hexahydro-7H,14H-pyrazino[1′,2′:5.6][1,5]diazocino[3,2,1-hi]indazol-3-yl)-2-amino-7-fluorobenzo[b]thiophene-3-carbonitrile] | – | – | – | 0.32 | 0.46 | 0.09 |
| C=CC(=O)N1CCN2C(=O)c3cc(F)c(-c4ccc(F)c5sc(N)c(C#N)c45)c4cnn(c34)C[C@H]2C1 [Example 14, 4-((R)-10-Acryloyl-4-fluoro-6-oxo-8,9,10,11,11a,12-hexahydro-6H-pyrazino[2′,1′:3,4][1,4]diazepino[6,7,1-hi]indazol-3-yl)-2-amino-7-fluorobenzo[b]thiophene-3-carbonitrile] | – | 39.6 | 1.35 | – | – | – |

Next, values leading:

| IC50 ([1]; Homo sapiens, NCI-H358, 120 h) [nM] | IC50 ([2]; Homo sapiens, MIA PaCa-2, 72 h) [nM] | IC50 ([3]; Homo sapiens, NCI-H358, 3 h) [nM] | IC50 [1] [nM] | IC50 [2] [nM] | IC50 [3] [nM] | Structure (SMILES) |
| --- | --- | --- | --- | --- | --- | --- |
| 9.57 | 9.16 | 1.09 | – | – | – | C=CC(=O)N1CCN2C(=O)c3cc(F)c(-c4ccc(F)c5sc(N)c(C#N)c45)c4c(C)cn(c34)CC[C@H]2C1 (atropisomer, axis not shown) [Example 18-P2, (S)-4-((S)-10-Acryloyl-2-fluoro-4-methyl-14-oxo-8,8a,9,10,11,12-hexahydro-7H,14H-pyrazino[1′,2′:5,6][1,5]diazocino[3,2,1-hi]indol-3-yl)-2-amino-7-fluorobenzo[b]thiophene-3-carbonitrile] |
| 0.84 | 0.19 | 0.16 | – | – | – | C=CC(=O)N1CCN2C(=O)c3cc(F)c(-c4ccc(F)c5sc(N)c(C#N)c45)c4c(F)nn(c34)CC[C@H]2C1 (atropisomer, axis not shown) [Example 8-P2, (S)-4-((S)-10-Acryloyl-2,4-difluoro-14-oxo-8,8a,9,10,11,12-hexahydro-7H,14H-pyrazino[1′,2′:5][1,5]diazocino[3,2,1-hi]indazol-3-yl)-2-amino-7-fluorobenzo[b]thiophene-3-carbonitrile] |
| 7.9 | 1.21 | – | – | – | 0.88 | C=CC(=O)N1CCN2C(=O)c3cc(F)c(-c4ccc(F)c5sc(N)c(C#N)c45)c4nnn(c34)CC[C@H]2C1 (atropisomer, axis not shown) [Example 20-P2, (S)-4-((S)-9-Acryloyl-2-fluoro-12-oxo-7,7a,8,9,10,11-hexahydro-6H,12H-4,5,5a,9,11a-pentaazabenzo[5,6]cycloocta[1,2,3-cd]inden-3-yl)-2-amino-7-fluorobenzo[b]thiophene-3-carbonitrile] |
| – | – | – | – | – | 32.5 | C=CC(=O)N1CCN2C(=O)c3cc(F)c(-c4ccc(F)c5sc(N)c(C#N)c45)c4c(C)nn(c34)CC[C@H]2C1 (atropisomer, axis not shown) [Example 9-P1, (R)-4-((S)-10-Acryloyl-2-fluoro-4-methyl-14-oxo-8,8a,9,10,11,12-hexahydro-7H,14H-pyrazino[1′,2′:5,6][1,5]diazocino[3,2,1-hi]indazol-3-yl)-2-amino-7-fluorobenzo[b]thiophene-3-carbonitrile] |

Reference: US20250122211A1, “NITROGEN-CONTAINING TETRACYCLIC COMPOUND, PREPARATION METHOD THEREFOR, AND MEDICAL USE THEREOF” (Jiangsu Hengrui Pharmaceuticals Co., Ltd., priority 2021, published 2025)
